In ChEMBL document CHEMBL1157539, “Thousands of chemical starting points for antimalarial lead identification” (Nature, 2010):

System: Plasmodium falciparum
Assay: GSK_TCMDC: Inhibition of Plasmodium falciparum 3D7 in whole erythrocytes, using parasite LDH activity as an index of growth.
Assay type: functional, organism-based
Conditions: Plasmodium falciparum, 3D7

CC(C)n1c(C(C)(C)C)cc2c3c(N)nc(N)nc3ccc21
XC50: 3.2 nM

COCCCn1c(=N)c(C(=O)NCCc2ccc(OC)cc2)cc2c(=O)n3cccc(C)c3nc21
XC50: 1030 nM

O=C(Nc1ccc(C(F)(F)F)cc1)N[C@H]1CCN(CCCCCNC(=O)C2CC2c2ccc(Cl)c(Cl)c2)C1 (some centres not stated)
XC50: 1100 nM

CCCCCCc1cc(OC)c(OC)cc1C(C)Nc1ccnc2cc(Cl)ccc12 (configuration not stated)
XC50: 488 nM

O=C(NC1CCN(Cc2ccccc2)CC1)c1ccc(-c2nc3cc(Cl)c(F)cc3[nH]2)cc1
XC50: 245 nM

CC1CCC(C(C)C)C(OC(=O)CSc2nnc3c(n2)[nH]c2ccccc23)C1 (configuration not stated)
XC50: 931 nM

CN(C)C(=O)O[C@@H]1CN[C@H](C#Cc2cc3ncnc(Nc4ccc5c(cnn5Cc5cccc(F)c5)c4)c3s2)C1
XC50: 759 nM

CC(CN(C)C)C(=O)Nc1ccc(-c2ccc(-c3nc4cc(F)ccc4[nH]3)cc2)cc1 (configuration not stated)
XC50: 773 nM

CC1CCCCC1N(C)C1CCN(CCCNC(=O)C=Cc2ccc(Cl)cc2Cl)CC1 (configuration not stated)
XC50: 650 nM

COc1cccc(Nc2nc(N)c3ccccc3n2)c1
XC50: 934 nM

N=C(NCCCc1ccccc1)c1cccc(C(=N)NCCCc2ccccc2)n1
XC50: 1380 nM

CCCCCCCCNCCCSCCCNCCCCCCCC
XC50: 1230 nM

COc1ccc(S(=O)(=O)N(c2cc(Br)cc3c2OCC3)S(=O)(=O)c2ccc(OC)c(N3CCN(C)CC3)c2)cc1N1CCN(C)CC1
XC50: 1170 nM

CC(C)CNC(=S)N1CCCN(c2nc3ccc(Cl)cc3s2)CC1
XC50: 960 nM

Cc1ccc(CCOCCCCCNCC(O)c2cc(Cl)c(N)c(Cl)c2)cc1 (configuration not stated)
XC50: 945 nM

O=C(/C=C/c1cccs1)NCC(NCCCNc1cc(=O)c2ccccc2[nH]1)c1cc(Br)cc(Br)c1 (configuration not stated)
XC50: 888 nM

CN1CCN(c2ccnc3ccc(NC(=O)c4ccc(Cl)c(Cl)c4)cc23)CC1
XC50: 710 nM

CN(C)CCNc1cc(-c2ccc3ccccc3c2)nc2ccccc12
XC50: 350 nM

O=[N+]([O-])c1nc(Br)n(Cc2ccc(Cl)cc2)n1
XC50: 360 nM

Fc1ccc2[nH]c(-c3cccc(-c4ccc(CN5CCN(CCN6CCOCC6)CC5)cc4)c3)nc2c1
XC50: 307 nM

O=c1cc(NCCC(CNCc2ccc(Br)o2)NCc2cc(Br)cc(Br)c2)[nH]c2ccccc12 (configuration not stated)
XC50: 860 nM

Cc1ccc(NC(=O)N2CCC(n3c(-c4ccccc4)nc4cccnc43)CC2)cc1F
XC50: 534 nM

N=C(/N=C(/NCCCCCCN/C(=N\C(=N)Nc1ccc(Cl)cc1)N1CCCCC1)N1CCCCC1)Nc1ccc(Cl)cc1
XC50: 256 nM

Cc1cccc(CC2CC(=O)N(c3ccc([N+](=O)[O-])cc3)C2=O)c1 (configuration not stated)
XC50: 200 nM

FC(F)(F)c1ccc(-c2cncc(-c3ccc(C(F)(F)F)cc3)n2)cc1
XC50: 759 nM

CCc1n[nH]c(C(=O)NC2CCN(CC3(c4ccc(OC)cc4)CCCCC3)CC2)c1C
XC50: 892 nM

COC(=O)c1ccc(CC(C)NCC(O)c2ccc(Cl)c(Cl)c2)cc1 (configuration not stated)
XC50: 1000 nM

Cc1ccc(CNC(=O)c2ccc(CN3CCCN(Cc4ccsc4)CC3)cc2)cc1
XC50: 868 nM

CN(Cc1ccc(C#N)cc1)C1CCN(c2cc(NC(=O)c3ccc(F)cc3)ccn2)CC1
XC50: 1430 nM

Cc1nc(C)c(-c2ccc(Oc3ccc(Cl)cc3)cc2)c(O)c1I
XC50: 957 nM

CC12CC3CC(C)(C1)CC(Nc1nc(N4CCOCC4)nc4ccccc14)(C3)C2
XC50: 938 nM

CCN(CCCN1CCCCC1)c1cc(C)nc(Nc2ccc(Cl)c(C(F)(F)F)c2)n1
XC50: 173 nM

Cc1c(C(C)(C)C)ccc2nc(N)nc(N)c12
XC50: 8.73 nM

N=C(NCc1ccccc1)Nc1nc(-c2ccc(OCCCn3ccnc3)cc2)cs1
XC50: 253 nM

O=c1cc(NCCC(CNCc2ccoc2)NCc2cc(Br)cc(Br)c2)[nH]c2ccccc12 (configuration not stated)
XC50: 910 nM

COc1ccc(C=NN=c2cc(C)[nH]c3ccc(C)cc23)c2ccccc12
XC50: 864 nM

CCC(=O)Nc1nnc(Cc2ccc(OC)c(OC)c2)s1
XC50: 910 nM

CN(CCC1CCN(C(=O)/C=C/c2ccc(Cl)c(Cl)c2)CC1)C1CCC(c2c[nH]c3ccccc23)CC1 (configuration not stated)
XC50: 774 nM

CC1(C)N=C(N)N=C(N)N1c1ccc(I)cc1
XC50: 44.4 nM

O=C(/C=C/c1ccccc1O)N1CCC(CCN2CCC(c3c[nH]c4ccccc34)CC2)CC1
XC50: 1340 nM

CC(=O)Nc1ccc(S(=O)(=O)NC2=NC(=N)N(OCc3ccc(Cl)c(Cl)c3)C(C)(C)N2)cc1
XC50: 33.9 nM

O=C(NC1CCC(CN2CCC(c3c[nH]c4ccccc34)CC2)CC1)c1csc(-c2ccc(C(F)(F)F)cc2Cl)n1 (configuration not stated)
XC50: 827 nM

O=[N+]([O-])c1ccc(C(O)P(=O)(c2ccccc2)c2ccccc2)cc1 (configuration not stated)
XC50: 341 nM

O=C(NCc1cccc(C(F)(F)F)c1)c1ccc(-c2nc3cc(F)c(F)cc3[nH]2)cc1
XC50: 776 nM

CCN1CCN(c2cc(C)c3cc(NC(=O)C=Cc4cccc(OC)c4OC)ccc3n2)CC1
XC50: 697 nM

O=C(/C=C/c1ccc(Cl)c(Cl)c1)N1CCC(CN2CCC(c3c(-c4ccc(F)cc4)[nH]c4ccccc34)CC2)CC1
XC50: 175 nM

Cc1cc(C2CCN(CCCCNC(=O)c3ccc(NC(=O)c4ccc(Cl)cc4)cc3)CC2)c(C)cc1OCCN(C)C
XC50: 766 nM

CC(C)CNCc1cccc(-c2ccccc2CN(C(=O)NCCc2ccccc2)C2CCN(Cc3ccccc3)CC2)c1
XC50: 1170 nM

O=C(Nc1cccc(-c2ccc(-c3nc4ccccc4[nH]3)cc2)c1)c1cnn2cccnc12
XC50: 1060 nM

CCN1CCN(c2cc(C)c3cc(NC(=O)c4ccc(OC)c(OC)c4)ccc3n2)CC1
XC50: 1030 nM

C=C[C@H]1CN2CC[C@H]1C[C@H]2[C@H](OS(=O)(=O)O)c1ccnc2ccccc12
XC50: 624 nM

CN(C)CCCNCc1cn(S(=O)(=O)c2ccccc2Cl)c2ccccc12
XC50: 1070 nM

CC(C)C[C@H](NC(=O)c1cc2ccccc2s1)C(=O)N[C@H]1CCN(Cc2ccc(OC3CCN(C)C3)c(Cl)c2)C1 (some centres not stated)
XC50: 782 nM

CCNc1cc(C(=O)N[C@@H](Cc2ccccc2)[C@H](O)CNC(C)(C)c2cccc(OC)c2)cc(N2CCCC2=O)c1
XC50: 143 nM

COc1ccc2cc(C(=O)NC3CCC(CCN4CCc5cc(C#N)ccc5C4)CC3)[nH]c2c1 (configuration not stated)
XC50: 1010 nM

CN(C)CCCc1cc(NC(=O)Nc2cccc(Cl)c2Cl)ccc1I
XC50: 539 nM

O=C(NC1CCC(CN2CCC(c3c[nH]c4ccccc34)CC2)CC1)c1cc(-c2ccccc2Cl)n(-c2cccc(Cl)c2)n1 (configuration not stated)
XC50: 851 nM

COc1cc2nc(NCc3ccc(S(N)(=O)=O)cc3)nc(Nc3ccc(Oc4ccccc4)cc3)c2cc1OC
XC50: 445 nM

Cc1ccccc1C1CCN(C2CCC(NC(=O)/C=C/c3cc(F)cc(F)c3)CC2)CC1 (configuration not stated)
XC50: 833 nM

CC(C)Oc1cc2c(cc1NS(=O)(=O)c1ccc(-c3ccc(Cl)cc3)cc1)CCN(C)CC2
XC50: 1040 nM

CCCCN(CCCC)C(=N)c1cccc2c1CCCC2
XC50: 1560 nM

COC(=O)c1cc(NC(=O)Nc2ccc(Cn3ncc(N4CCCNCC4)c(Cl)c3=O)cc2)cc(C(=O)OC)c1
XC50: 708 nM

CCCCCN1CCC(NS(=O)(=O)c2cccc(C(=O)Nc3ccc(C(F)(F)F)cc3)c2)C1 (configuration not stated)
XC50: 798 nM

CCCCCN1CCCC(NS(=O)(=O)c2ccc(C(=O)Nc3ccc(C(F)(F)F)cc3)cc2)C1 (configuration not stated)
XC50: 1630 nM

COc1cc(C(=O)N2CCOC(CCN3CCC[C@H]3C(=O)Nc3ccccc3)(c3ccc(Cl)c(Cl)c3)C2)cc(OC)c1OC (some centres not stated)
XC50: 733 nM

CN(CCN)Cc1cccc(-c2cccc(-c3nc4cc(F)ccc4[nH]3)c2)c1
XC50: 785 nM

CCc1c(CCNCCCC(C)CCNCCc2ccc(OC)c(OC)c2CC)ccc(OC)c1OC (configuration not stated)
XC50: 1110 nM

Fc1ccccc1CNc1ncc(-c2ccsc2)c(-c2nccs2)n1
XC50: 54 nM

Fc1ccc2[nH]c(-c3ccc(-c4cccc(CN5CCC(CCN6CCCCC6)CC5)c4)cc3)nc2c1
XC50: 136 nM

O=C(Nc1cccnc1)c1cc(-c2cc(Cl)ccc2O)n[nH]1
XC50: 719 nM

CN(CC1CCC(NC(=O)/C=C/c2ccc(Cl)c(Cl)c2)CC1)C1CCC(c2c[nH]c3ccccc23)CC1 (configuration not stated)
XC50: 837 nM

Cc1ccc(-n2cc(CNCC3CCN(CCO)CC3)c(-c3ccc(F)cc3)n2)cc1
XC50: 2000 nM

Cc1cc(N2CCCC2)nc(Nc2ccc(NC(=O)Cc3ccccc3)cc2)n1
XC50: 606 nM

N=C(N)c1ccc(NC(=O)Cc2nc3cc(C(=N)N)ccc3[nH]2)cc1
XC50: 1380 nM

FC(F)(F)c1ccc2[nH]c(-c3cccc(-c4ccc(CNCCN5CCNCC5)cc4)c3)nc2c1
XC50: 862 nM

Cc1ccc(Oc2ccc(CNc3nc(Nc4cccc(F)c4)nc(Nc4cccc(F)c4)n3)cc2)cc1
XC50: 1210 nM

Cc1n[nH]c2ccc(-c3cc(OC[C@@H](N)Cc4ccccc4)cnc3-c3ccc(OCc4cccc(F)c4)cc3)cc12
XC50: 730 nM

CN(C)c1ccc(-c2cscc2C(=O)NC2CCCN(Cc3cccnc3)C2)cc1 (configuration not stated)
XC50: 859 nM

CCOC(=O)c1cncc(/C=C/c2cc(C)cnc2N)c1
XC50: 424 nM

COCCN(C)c1ccc(C(=O)Nc2ccccc2)cc1NS(=O)(=O)Cc1ccccc1
XC50: 571 nM

Cc1ccccc1C1CCN(C2CCC(NC(=O)/C=C/c3ccc(F)cc3)CC2)CC1 (configuration not stated)
XC50: 1340 nM

CN1CCN(c2ccnc3ccc(NC(=O)Cc4ccc(OCc5ccccc5)cc4)cc23)CC1
XC50: 628 nM

Cc1[nH]c2ccccc2c1C1CCN(CC2CCC(NC(=O)/C=C/c3ccc(Cl)c(Cl)c3)CC2)CC1 (configuration not stated)
XC50: 822 nM

CN1CCN(S(=O)(=O)c2ccc3nccc(Nc4ccc(Oc5ccccc5)cc4)c3c2)CC1
XC50: 818 nM

CCn1c(-c2ccccc2)cc2nnc3ccccc3c21
XC50: 769 nM

COc1ccc(CNc2ncnc3c2[nH]c2ccc(F)cc23)cc1
XC50: 980 nM

Cc1cc(NCCC(=O)NCCOc2ccccc2)nc(NCCOc2ccccc2)n1
XC50: 867 nM

COc1ccc(-c2ccnc(-c3cccc(-c4ccccn4)n3)c2)cc1
XC50: 824 nM

Cc1cccc(Cl)c1S(=O)(=O)N1CCCCC(c2ccc(C(F)(F)F)cc2)=N1
XC50: 216 nM

Cn1ccnc1CNC(=O)c1ccc(-c2cccc(-c3nc4cc(F)ccc4[nH]3)c2)cc1
XC50: 980 nM

Nc1ncc(-c2cn[nH]c2)cc1-c1nc2ccc(F)cc2[nH]1
XC50: 729 nM

O=C(Nc1ccc(Cl)c(Cl)c1)C1CCC(=O)N1[C@@H](Cc1ccccc1)C(=O)NCCc1ccc(Cl)cc1 (some centres not stated)
XC50: 1100 nM

COc1ccc(Nc2ncc3c(-c4cccc(NC(=O)Cc5cccnc5)c4)c[nH]c3n2)cc1OC
XC50: 718 nM

CN(CCN)Cc1ccc(-c2ccc(-c3nc4cc(F)ccc4[nH]3)s2)cc1
XC50: 1070 nM

CCCCC1(NC(=O)[C@H](CC(C)C)Nc2ccc(C#N)c3ccccc23)CCCCC1
XC50: 799 nM

O=C(NCCCCN1CCC(c2ccc3c(c2OCC2COCO2)CCCC3)CC1)c1ccc(-c2ccc(C(F)(F)F)cc2)cc1 (configuration not stated)
XC50: 868 nM

Cc1cccc(C(=O)Nc2ccc(N3CCCN(Cc4cccc(O)c4)CC3)cc2)c1
XC50: 1420 nM
